Experimental data reported in PubChem BioAssay AID248 (DTP/NCI, 2004).
“And” between values parts separate entries of the source, which are not always exact repeats. Identical values can stand only once. Toxic doses and inconclusive results are not listed. Cut-off read from the data, not from the text of the source: active = T/C of 150% or more; inactive = T/C below 125%.

Test system: L1210 leukemia ip in BDF1 mice, survival T/C
Assay: NCI In Vivo Anticancer Drug Screen. Data for tumor model L1210 Leukemia (intraperitoneal) in B6D2F1 (BDF1) mice
Conditions: endpoint: mean survival time, higher = longer survival
In short: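 Transplanted-tumor mice were given test agent; controls received vehicle only. Survival readings from the two groups were divided (treated over control).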

[1] = dose: 100.0 mg/kg/injection, schedule: Q04DX003 (ip), vehicle: saline with Tween-80
[2] = dose: 100.0 mg/kg/injection, schedule: Q04DX002 (ip), vehicle: Klucel (hydroxypropylcellulose) (HPC)
[3] = dose: 200.0 mg/kg/injection, schedule: Q04DX002 (ip), vehicle: Klucel (hydroxypropylcellulose) (HPC)
[4] = dose: 400.0 mg/kg/injection, schedule: Q04DX002 (ip), vehicle: Klucel (hydroxypropylcellulose) (HPC)
[5] = dose: 100.0 mg/kg/injection, schedule: Q01DX001 (ip), vehicle: saline
[6] = dose: 200.0 mg/kg/injection, schedule: Q01DX001 (ip), vehicle: saline
[7] = dose: 400.0 mg/kg/injection, schedule: Q01DX001 (ip), vehicle: saline
[8] = dose: 200.0 mg/kg/injection, schedule: Q04DX003 (ip), vehicle: saline with Tween-80
[9] = dose: 100.0 mg/kg/injection, schedule: Q01DX009 (ip), vehicle: saline
[10] = dose: 100.0 mg/kg/injection, schedule: Q04DX003 (ip), vehicle: saline
[11] = dose: 200.0 mg/kg/injection, schedule: Q01DX009 (ip), vehicle: saline
[12] = dose: 200.0 mg/kg/injection, schedule: Q04DX003 (ip), vehicle: saline
[13] = dose: 400.0 mg/kg/injection, schedule: Q01DX009 (ip), vehicle: saline
[14] = dose: 400.0 mg/kg/injection, schedule: Q04DX003 (ip), vehicle: saline
[15] = dose: 100.0 mg/kg/injection, schedule: Q01DX009 (ip), vehicle: Klucel (hydroxypropylcellulose) (HPC)
[16] = dose: 200.0 mg/kg/injection, schedule: Q01DX009 (ip), vehicle: Klucel (hydroxypropylcellulose) (HPC)
[17] = dose: 400.0 mg/kg/injection, schedule: Q01DX009 (ip), vehicle: Klucel (hydroxypropylcellulose) (HPC)
[18] = dose: 100.0 mg/kg/injection, schedule: Q04DX002 (ip), vehicle: saline
[19] = dose: 200.0 mg/kg/injection, schedule: Q04DX002 (ip), vehicle: saline

Measured: T/C

S=C(NCCNC(=S)[S][Sn]([c]1ccccc1)([c]1ccccc1)[c]1ccccc1)[S][Sn]([c]1ccccc1)([c]1ccccc1)[c]1ccccc1
inactive: dose: 4.0 mg/kg/injection, schedule: Q01DX015 (ip), vehicle: carboxymethylcellulose (CMC) 97 % of control | dose: 8.0 mg/kg/injection, schedule: Q01DX015 (ip), vehicle: carboxymethylcellulose (CMC) 97 % of control | dose: 16.0 mg/kg/injection, schedule: Q01DX015 (ip), vehicle: carboxymethylcellulose (CMC) 94 % of control | dose: 25.0 mg/kg/injection, schedule: Q01DX009 (ip), vehicle: saline with Tween-80 92 % of control | dose: 32.0 mg/kg/injection, schedule: Q01DX015 (ip), vehicle: carboxymethylcellulose (CMC) 94 % of control and 104 % of control | dose: 50.0 mg/kg/injection, schedule: Q01DX009 (ip), vehicle: saline with Tween-80 91 % of control | dose: 64.0 mg/kg/injection, schedule: Q01DX015 (ip), vehicle: carboxymethylcellulose (CMC) 112 % of control | dose: 100.0 mg/kg/injection, schedule: Q01DX001 (ip), vehicle: carboxymethylcellulose (CMC) 100 % of control | [1] 96 % of control | dose: 200.0 mg/kg/injection, schedule: Q01DX001 (ip), vehicle: carboxymethylcellulose (CMC) 100 % of control | dose: 400.0 mg/kg/injection, schedule: Q01DX001 (ip), vehicle: carboxymethylcellulose (CMC) 102 % of control

O=S(=O)(O)CCC(O)S(=O)(=O)O (configuration not stated)
inactive: [2] 98 % of control | [3] 92 % of control | [4] 92 % of control

c1ccc2c(c1)CC1c3ccccc3CC21 (configuration not stated)
inactive: [5] 109 % of control | [6] 103 % of control | [7] 98 % of control

NC(CC(=O)CCl)C(=O)O (configuration not stated)
inactive: dose: 9.4 mg/kg/injection, schedule: Q01DX009 (ip), vehicle: saline 107 % of control | dose: 18.8 mg/kg/injection, schedule: Q01DX009 (ip), vehicle: saline 102 % of control | dose: 22.0 mg/kg/injection, schedule: Q04DX003 (ip), vehicle: saline 121 % of control | dose: 75.0 mg/kg/injection, schedule: Q01DX001 (ip), vehicle: carboxymethylcellulose (CMC) 121 % of control | dose: 75.0 mg/kg/injection, schedule: Q01DX009 (ip), vehicle: carboxymethylcellulose (CMC) 88 % of control | dose: 150.0 mg/kg/injection, schedule: Q01DX001 (ip), vehicle: carboxymethylcellulose (CMC) 109 % of control

CC(C)(Br)C(=O)C(Br)Br
inactive: [5] 106 % of control | [6] 102 % of control

O=C1CC2C(=O)C1C(C(=O)O)C2C(=O)O (configuration not stated)
inactive: dose: 75.0 mg/kg/injection, schedule: Q01DX001 (ip), vehicle: saline 112 % of control | dose: 150.0 mg/kg/injection, schedule: Q01DX001 (ip), vehicle: saline 102 % of control | dose: 300.0 mg/kg/injection, schedule: Q01DX001 (ip), vehicle: saline 95 % of control

CC(C)C1=CC23CCC4C(C)(C(=O)O)CCCC4(C)C2CC1C1C(=O)N(CCCN(C)C)C(=O)C13 (configuration not stated)
inactive: dose: 75.0 mg/kg/injection, schedule: Q01DX001 (ip), vehicle: other 96 % of control | dose: 150.0 mg/kg/injection, schedule: Q01DX001 (ip), vehicle: other 94 % of control

COC(=O)/C=C\C(=O)OC
inactive: dose: 100.0 mg/kg/injection, schedule: Q04DX003 (ip), vehicle: Klucel (hydroxypropylcellulose) (HPC) 95 % of control | dose: 200.0 mg/kg/injection, schedule: Q04DX003 (ip), vehicle: Klucel (hydroxypropylcellulose) (HPC) 100 % of control | dose: 400.0 mg/kg/injection, schedule: Q04DX003 (ip), vehicle: Klucel (hydroxypropylcellulose) (HPC) 100 % of control

[Cl][Pt+2][Cl].[NH-]CC(=O)O.[NH-]CC(=O)O
inactive: dose: 9.7 mg/kg/injection, schedule: Q01DX009 (ip), vehicle: saline 86 % of control | dose: 19.4 mg/kg/injection, schedule: Q01DX001 (ip), vehicle: saline 100 % of control | dose: 19.4 mg/kg/injection, schedule: Q01DX009 (ip), vehicle: saline 89 % of control | dose: 38.8 mg/kg/injection, schedule: Q01DX001 (ip), vehicle: saline 105 % of control | dose: 38.8 mg/kg/injection, schedule: Q01DX009 (ip), vehicle: saline 95 % of control | dose: 77.5 mg/kg/injection, schedule: Q01DX001 (ip), vehicle: saline 109 % of control | dose: 77.5 mg/kg/injection, schedule: Q01DX009 (ip), vehicle: saline 100 % of control | dose: 155.0 mg/kg/injection, schedule: Q01DX001 (ip), vehicle: saline 98 % of control

O=C1OC(=O)C2(Br)C3C=CC(C3)C12Br (configuration not stated)
inactive: [1] 98 % of control | [8] 96 % of control | dose: 400.0 mg/kg/injection, schedule: Q04DX003 (ip), vehicle: saline with Tween-80 91 % of control

CC/C(C)=C\CC/C(C)=C/COc1cccc([N+](=O)[O-])c1
inactive: dose: 50.0 mg/kg/injection, schedule: Q01DX009 (ip), vehicle: carboxymethylcellulose (CMC) 97 % of control | dose: 100.0 mg/kg/injection, schedule: Q01DX009 (ip), vehicle: carboxymethylcellulose (CMC) 92 % of control | dose: 200.0 mg/kg/injection, schedule: Q01DX009 (ip), vehicle: carboxymethylcellulose (CMC) 101 % of control

C[N+](C)(C)CC[N+](C)(C)C
inactive: [9] 108 % of control | [10] 100 % of control | [11] 106 % of control | [12] 110 % of control | [13] 100 % of control | [14] 97 % of control

Cc1ccc(/C=N/NC(=O)c2ccncc2)cc1
inactive: dose: 25.0 mg/kg/injection, schedule: Q01DX009 (ip), vehicle: Klucel (hydroxypropylcellulose) (HPC) 94 % of control | dose: 50.0 mg/kg/injection, schedule: Q01DX009 (ip), vehicle: Klucel (hydroxypropylcellulose) (HPC) 96 % of control | [15] 94 % of control and 96 % of control

N=C(Oc1c(Cl)c(Cl)c(Cl)c(Cl)c1Cl)Oc1c(Cl)c(Cl)c(Cl)c(Cl)c1Cl
inactive: [15] 100 % of control | [16] 111 % of control | [17] 102 % of control

CC(C)CC(=O)c1ccccc1
inactive: dose: 50.0 mg/kg/injection, schedule: Q04DX002 (ip), vehicle: saline 104 % of control | [18] 97 % of control | [19] 111 % of control

Cc1ccc(N=Nc2ccc(C)cc2NC(=O)Nc2ccccc2C(F)(F)F)cc1
inactive: [15] 92 % of control | [16] 90 % of control | [17] 90 % of control

Oc1ccc(-c2ccccc2)cc1Br
inactive: [1] 101 % of control | [8] 111 % of control

COc1ccccc1NC(=O)Oc1ccc(Br)cc1Br
inactive: [5] 95 % of control | [9] 102 % of control and 106 % of control | [18] 105 % of control and 109 % of control | [10] 93 % of control | [6] 101 % of control | [11] 103 % of control and 110 % of control | [19] 105 % of control and 109 % of control | [12] 95 % of control | [7] 123 % of control | [13] 103 % of control and 109 % of control | dose: 400.0 mg/kg/injection, schedule: Q04DX002 (ip), vehicle: saline 107 % of control and 88 % of control | [14] 101 % of control

O=C(O)COc1c(F)cc([N+](=O)[O-])cc1[N+](=O)[O-]
inactive: [2] 106 % of control | [3] 91 % of control | [4] 111 % of control

C(/C=C/C=C/Nc1ccc(N=Nc2ccccc2)cc1)=Nc1ccc(N=Nc2ccccc2)cc1
inactive: dose: 100.0 mg/kg/injection, schedule: Q01DX009 (ip), vehicle: saline sonified 94 % of control | dose: 100.0 mg/kg/injection, schedule: Q04DX003 (ip), vehicle: saline sonified 94 % of control | dose: 200.0 mg/kg/injection, schedule: Q01DX009 (ip), vehicle: saline sonified 94 % of control | dose: 200.0 mg/kg/injection, schedule: Q04DX003 (ip), vehicle: saline sonified 93 % of control | dose: 400.0 mg/kg/injection, schedule: Q04DX003 (ip), vehicle: saline sonified 91 % of control
